Laboratory results published in the supplement of paper PMC8671470.

Experiments:
Details in all cases: 72 h
HL-60 [1] = test: area under dose-response curve (viability, 1 nM-10 uM) (fraction (0-1)); higher = more sensitive
In short: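 Four-parameter log-logistic fits in drc and PharmacoGx supplied area under the curve where it is given. Underlying viability came from CellTiter-Glo, normalised to DMSO and proteasome-inhibitor wells, with the proteasome inhibitor at 10 μM. HL-60 cells in RPMI 1640 plus 10% FBS had been rescreened against the full library at five tenfold concentrations of 1–10,000 nM, in duplicate on 384-well plates, with DMSO or 100 nM of one of three metabolic inhibitors, for 72 h at 37 °C, 5% CO2.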

Mono-Mac-6 = system: Mono-Mac-6
In short: (§1)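 Seeded in RPMI 1640 at densities within the linear growth range, fifteen myeloid leukaemia cell lines were dispensed into 384-well plates with acoustically pre-printed compounds spanning five tenfold doses from 1 to 10,000 nM, in duplicate. The plates were kept for 72 h at 37 °C in 5% CO2 before luminescent ATP viability was measured and normalised to vehicle and to a positive control at 10 µM. Curves were fitted with a four-parameter log-logistic model. The IC50 was taken from those curves.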

NOMO-1 = system: NOMO-1
In short: as §1

ML-2 = system: ML-2
In short: as §1

HL-60 [2] = system: HL-60
In short: as §1

KCL-22 = system: KCL-22
In short: as §1

K-562 = system: K-562
In short: as §1

HEL = system: HEL
In short: as §1

SHI-1 = system: SHI-1
In short: as §1

KU-812 = system: KU-812
In short: as §1

KG-1 = system: KG-1
In short: as §1

MOLM-13 = system: MOLM-13
In short: as §1

LAMA-84 = system: LAMA-84
In short: as §1

BV-173 = system: BV-173
In short: as §1

MV4-11 = system: MV4-11
In short: as §1

THP-1 = system: THP-1
In short: as §1

[3] = co-treatment: GSK2194069 100 nM
[4] = co-treatment: pictilisib 100 nM

| SMILES | area under dose-response curve (HL-60 [1]; co-treatment: AZD3965 100 nM) | area under dose-response curve (HL-60 [1]; co-treatment: DMSO vehicle) | area under dose-response curve (HL-60 [1]; [3]) | area under dose-response curve (HL-60 [1]; [4]) | IC50 (cell viability) (Mono-Mac-6) | IC50 (cell viability) (NOMO-1) | IC50 (cell viability) (ML-2) | IC50 (cell viability) (HL-60 [2]) | IC50 (cell viability) (KCL-22) | IC50 (cell viability) (K-562) | IC50 (cell viability) (HEL) | IC50 (cell viability) (SHI-1) | IC50 (cell viability) (KU-812) | IC50 (cell viability) (KG-1) | IC50 (cell viability) (MOLM-13) | IC50 (cell viability) (LAMA-84) | IC50 (cell viability) (BV-173) | IC50 (cell viability) (MV4-11) | IC50 (cell viability) (THP-1) |
| --- | --- | --- | --- | --- | --- | --- | --- | --- | --- | --- | --- | --- | --- | --- | --- | --- | --- | --- | --- |
| O=C(c1ccc(OCCN2CCCCC2)cc1)c1c(-c2ccc(O)cc2)sc2cc(O)ccc12 [Raloxifene] | < 0.0301 | < 0.0301 | < 0.0301 | < 0.0301 | > 10 µM | > 10 µM | > 10 µM | > 10 µM | > 10 µM | > 10 µM | > 10 µM | > 10 µM | > 10 µM | > 10 µM | > 10 µM | > 10 µM | > 10 µM | > 10 µM | > 10 µM |
| O=C(O)c1nn(Cc2ccc(Cl)cc2Cl)c2ccccc12 [Lonidamine] | < 0.0301 | < 0.0301 | < 0.0301 | < 0.0301 | > 10 µM | > 10 µM | > 10 µM | > 10 µM | > 10 µM | > 10 µM | > 10 µM | > 10 µM | > 10 µM | > 10 µM | > 10 µM | > 10 µM | > 10 µM | > 10 µM | > 10 µM |
| CC12CCC(O)CC1CCC1C2CCC2(C)C(C3=CC(=O)OC3)CCC12O (configuration not stated) [Digitoxigenin] | 0.372 | 0.376 | 0.386 | 0.374 | 0.213 µM | 0.437 µM | 0.35 µM | 0.338 µM | 0.331 µM | 0.184 µM | 0.336 µM | 0.358 µM | 0.368 µM | 0.264 µM | 0.122 µM | 0.234 µM | 0.24 µM | 0.323 µM | 0.286 µM |
| CCOC(=O)[C@H]1O[C@@H]1C(=O)N[C@@H](CC(C)C)C(=O)NCCC(C)C [Aloxistatin] | < 0.0301 | < 0.0301 | < 0.0301 | < 0.0301 | > 10 µM | 5.52 µM | > 10 µM | > 10 µM | > 10 µM | > 10 µM | > 10 µM | > 10 µM | > 10 µM | > 10 µM | > 10 µM | > 10 µM | > 10 µM | > 10 µM | > 10 µM |
| Nc1ncnc2c1ncn2[C@@H]1O[C@H](CSCC[C@H](N)C(=O)O)[C@@H](O)[C@H]1O [S-Adenosyl Homocysteine] | < 0.0301 | < 0.0301 | < 0.0301 | < 0.0301 | > 10 µM | > 10 µM | > 10 µM | > 10 µM | > 10 µM | > 10 µM | > 10 µM | > 10 µM | > 10 µM | > 10 µM | > 10 µM | > 10 µM | > 10 µM | > 10 µM | > 10 µM |
| Cc1c(-c2ccccc2)oc2c(C(=O)OCCN3CCCCC3)cccc2c1=O.Cl [Flavoxate] | < 0.0301 | < 0.0301 | < 0.0301 | < 0.0301 | > 10 µM | > 10 µM | > 10 µM | > 10 µM | > 10 µM | > 10 µM | > 10 µM | > 10 µM | > 10 µM | > 10 µM | > 10 µM | > 10 µM | > 10 µM | > 10 µM | > 10 µM |
| Sc1ncnc2nc[nH]c12 [6-mercaptopurine] | 0.0762 | 0.0564 | 0.0946 | 0.0609 | 1.03 µM | 0.441 µM | 1.1 µM | 0.964 µM | 1.01 µM | 0.732 µM | 1.91 µM | 1.52 µM | 2.51 µM | > 10 µM | 0.907 µM | 1.33 µM | 0.527 µM | 0.332 µM | > 10 µM |
| CCOC(=O)N1c2ccc(C(F)(F)F)cc2[C@@H](N(Cc2cc(C(F)(F)F)cc(C(F)(F)F)c2)C(=O)OC)C[C@H]1CC [Torcetrapib] | < 0.0301 | < 0.0301 | < 0.0301 | < 0.0301 | > 10 µM | > 10 µM | 7.83 µM | > 10 µM | > 10 µM | > 10 µM | > 10 µM | > 10 µM | > 10 µM | 9.96 µM | > 10 µM | > 10 µM | 0.652 µM | 7.03 µM | > 10 µM |
| C=CCc1ccc2c(c1O)C(=O)c1ccccc1C2=O [R162] | < 0.0301 | < 0.0301 | < 0.0301 | < 0.0301 | > 10 µM | > 10 µM | > 10 µM | > 10 µM | > 10 µM | > 10 µM | > 10 µM | > 10 µM | > 10 µM | > 10 µM | > 10 µM | > 10 µM | > 10 µM | > 10 µM | > 10 µM |
| O=C(COc1ccc(C(=O)c2ccccc2)cc1)NC1CCN(Cc2ccccc2)CC1 [AdipoRon] | < 0.0301 | < 0.0301 | < 0.0301 | < 0.0301 | > 10 µM | > 10 µM | > 10 µM | > 10 µM | > 10 µM | > 10 µM | > 10 µM | > 10 µM | 8.38 µM | 9.73 µM | > 10 µM | > 10 µM | 7.82 µM | > 10 µM | > 10 µM |
| OCCN1CCN(CCCN2c3ccccc3Sc3ccc(Cl)cc32)CC1 [Perphenazine] | 0.0332 | < 0.0301 | 0.0329 | < 0.0301 | > 10 µM | > 10 µM | 7.38 µM | 5.06 µM | 8.23 µM | 2.87 µM | > 10 µM | > 10 µM | 6.71 µM | 8.85 µM | 5.77 µM | 9.39 µM | 5.91 µM | 3.54 µM | > 10 µM |
| O=C(O)C(Cl)Cl [Dichloroacetate] | < 0.0301 | < 0.0301 | < 0.0301 | < 0.0301 | > 10 µM | > 10 µM | > 10 µM | > 10 µM | > 10 µM | > 10 µM | > 10 µM | > 10 µM | > 10 µM | > 10 µM | > 10 µM | > 10 µM | > 10 µM | > 10 µM | > 10 µM |
| O=C1Oc2ccccc2C(=O)C1CC1C(=O)Oc2ccccc2C1=O (configuration not stated) [Dicumarol] | < 0.0301 | < 0.0301 | < 0.0301 | < 0.0301 | > 10 µM | > 10 µM | > 10 µM | > 10 µM | > 10 µM | > 10 µM | > 10 µM | > 10 µM | > 10 µM | > 10 µM | > 10 µM | > 10 µM | > 10 µM | > 10 µM | > 10 µM |
